As usually defined, the viability, T/C is the result in the treated group divided by that in the control group, in per cent. As usually defined, the IC50 is the midpoint of a concentration-inhibition curve.

This experiment concerns 855422-203-R-J1-PDC complex spheroids, viability. The experiment in a line: Anticancer human tumor 855422-203-R-J1-PDC patient-derived bladder carcinoma cell line growth inhibition [CLK]. To be noted: for viability, T/C: stronger effect = lower value; for IC50: curve of compound. The text has this:
A high-throughput screen of multi-cell type tumor spheroids was designed to identify active combinations of […] and targeted small molecules. Complex spheroids include a stromal component modeled by human endothelial cells (HUVEC) and fibroblasts modeled by human mesenchymal stem cells (MSCs). The concentration ranges selected for each drug and investigational agent were based upon clinically achievable concentrations if the clinical Cmax of the agent was known.
Compounds. The drugs and investigational agents: cirtuvivint (SM08502; NSC835563), CC-671 (NSC850746), vemurafenib (NSC761431), tapotoclax (NSC804041), sotorasib (NSC818433), adagrasib (NSC831453), MRTX-1133 (NSC836407), BAY2416964 (NSC825713), copanlisib (NSC816437), inavolisib (NSC800729), abemaciclib (NSC768073), osimertinib (NSC779217), entinostat (NSC756642), eltanexor (KPT-8602, NSC794443), venetoclax (NSC766270), ceralasertib (NSC777638), bortezomib (NSC756655), olaparib (NSC753686), talazoparib (NSC767125), alisertib (NSC759677), peposertib (NSC802822), gemcitabine (NSC613327), 5-fluorouracil (NSC19893), SN-38 (NSC673596), oxaliplatin (NSC266046), paclitaxel (NSC125973), and doxorubicin (NSC123127), were obtained from the National Cancer Institute (NCI) Developmental Therapeutics Program Chemical Repository. The FDA-approved anticancer drug set is available from the Developmental Therapeutics Program at https://dtp.cancer.gov/organization/dscb/obtaining/available plates.htm. […] The stock solutions were prepared in dimethyl sulfoxide (DMSO, Sigma-Aldrich, St. Louis, MO, cat. D2650), except for the platinum complexes which were prepared in saline (Quality Biological, Gaithersburg, MD, cat. 114-055-101), at 800-fold the tested concentration and stored at -70 degrees C prior to their use. All drugs and investigational agents were tested over a range starting from a high concentration at or near the clinical Cmax and decreasing in half-log increments. If the clinical Cmax for an agent had not been determined, the highest concentration tested was 10 microM.
Cell Culture. All cells were maintained in an incubator at 37 degrees C and 5% CO2 with 95% humidity. The PDC lines were cultured according to standard operating procedures established by the NCI PDMR. Briefly, all PDCs were thawed and cultured in Matrigel-coated flasks prepared with a working solution of 1X Ham's F-12 nutrient mix, without supplementation (Invitrogen, Waltham, MA, cat. 11765054), 100 U/mL penicillin-streptomycin (Invitrogen, cat. 15140122), and 2.5% Matrigel (Corning Inc., Corning, NY, cat. 354248) for the first three passages. The 947758-054-R-J2-PDC line was cultured in 6B/Colon 1A media, which includes advanced DMEM/F-12 (Thermo Fisher Scientific, cat. 12634028), 10 mM HEPES (Thermo Fisher Scientific, cat. 15630080), 1X GlutaMAX supplement (Thermo Fisher Scientific, cat. 35050061), 0.1 mg/mL primocin (InvivoGen, cat. ant-pm-2), 10% defined fetal bovine serum, heat inactivated (HyClone Laboratories Inc., cat. SH30070.03HI), 1.25 mM N-Acetyl-L-cysteine (Sigma-Aldrich, cat. A9165), 10 mM nicotinamide (Sigma-Aldrich, cat. N0636), 1X B-27 supplement (Thermo Fisher Scientific, cat. 17504044), 1X N-2 supplement (Thermo Fisher Scientific, cat. 17502048), and 10 microM Y-27632 dihydrochloride (Tocris Bioscience, cat. 1254). The 876862-298-R-J1-PDC was cultured in 6E media, which includes all 6B/Colon 1A media components plus 50% L-WRN conditioned media (ATCC, cat. CRL-3276), 50 ng/mL recombinant human EGF recombinant protein (hEGF; Thermo Fisher Scientific, cat. PHG0311), 10 ng/mL recombinant human fibroblast growth factor 10 (hGFG-10; PeproTech, cat. 100-26), 1 ng/mL recombinant human fibroblast growth factor 2 (hFGF-2; PeproTech, cat. 100-18B), and 1 µM prostaglandin E2 (PGE2; Tocris, cat. 2296). The 227483-062-R1-J1-PDC line was cultured in Panc media, containing all 6E components except hFGF-2, with the addition of 500 nM SB-431542 (Selleckchem, cat. S1067) and 10 nM gastrin (Tocris, cat. 3006). […]

Where “and” joins values, the source holds several entries; their conditions need not be identical. Identical values can stand only once.
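Further: spheroids exposed to drugs for seven days before readout.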
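Wherever viability, T/C is given: 100% = DMSO vehicle control wells.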

For the compound `CC1COCCN1c1cc(C2(S(C)(=N)=O)CC2)nc(-c2ccnc3[nH]ccc23)n1` (stereo not drawn), the IC50 is 2.26 µM and 2.16 µM. Moreover, the viability, T/C (compound 0.0316 µM) is 127% and 114%. The viability, T/C (compound 0.1 µM) was 108% and 101%. Also, under “compound 0.316 µM”, the viability, T/C is 115% and 113%. Further, the viability, T/C (compound 1 µM) was 93.2% and 103%. Further, where the note is “compound 3.16 µM”, the viability, T/C is 32.1% and 23.6%. Also, the viability, T/C (compound 10 µM) is 11.2% and 8.31%.

On to `CCCS(=O)(=O)Nc1ccc(F)c(C(=O)c2c[nH]c3ncc(-c4ccc(Cl)cc4)cc23)c1F`, for which the IC50 is 5.93 µM and 6.04 µM. The viability, T/C (compound 0.0316 µM) was 101% and 114%. Moreover, the viability, T/C (compound 0.1 µM) is 98.5% and 97.8%. The viability, T/C (compound 0.316 µM) was 112% and 118%. For the same compound, the viability, T/C (compound 1 µM) was 107% and 111%. Where the note is “compound 3.16 µM”, the viability, T/C was 109% and 119%. Where the note is “compound 10 µM”, the viability, T/C is 3.67% and 1.89%.

For `CCN1CCN(Cc2ccc(Nc3ncc(F)c(-c4cc(F)c5nc(C)n(C(C)C)c5c4)n3)nc2)CC1`, the IC50 is > 1 µM and 0.778 µM. The viability, T/C (compound 0.00316 µM) was 99.2% and 123%. Besides, under “compound 0.01 µM”, the viability, T/C is 85.2% and 96.2%. Moreover, the viability, T/C (compound 0.0316 µM) was 79.4% and 92.5%. The viability, T/C (compound 0.1 µM) is 55.2% and 50%. In addition, the viability, T/C (compound 0.316 µM) was 50.4% and 57.6%. The viability, T/C (compound 1 µM) is 62.8% and 49.6%.

Regarding `CCc1c2c(nc3ccc(O)cc13)-c1cc3c(c(=O)n1C2)COC(=O)[C@]3(O)CC`, the IC50 is 0.00621 µM and 0.00632 µM. Besides, where the note is “compound 0.00316 µM”, the viability, T/C is 94.3% and 93.4%. Also, the viability, T/C (compound 0.01 µM) is 16.8% and 20.4%. Besides, for the setting “compound 0.0316 µM”, the viability, T/C is 15.4% and 10.1%. The viability, T/C (compound 0.1 µM) was 5.45% and 6.24%. Moreover, the viability, T/C (compound 0.316 µM) was 3.48% and 3.36%. Further, the viability, T/C (compound 1 µM) is 1.87% and 2.42%.

Consider `COC1C=CCC(C)C(C)S(=O)(=O)NC(=O)c2ccc3c(c2)N(CC2CCC21)CC1(CCCc2cc(Cl)ccc21)CO3` (stereo not drawn), for which the IC50 is 6.06 µM and 8.07 µM. Further, the viability, T/C (compound 0.0316 µM) was 96% and 134%. Moreover, under “compound 0.1 µM”, the viability, T/C was 105% and 90.2%. Besides, the viability, T/C (compound 0.316 µM) was 111% and 128%. Moreover, the viability, T/C (compound 1 µM) is 103% and 137%. Also, the viability, T/C (compound 3.16 µM) is 119% and 191%. Besides, the viability, T/C (compound 10 µM) was 6.05% and 30.3%.

As for `COc1c(OCCCN2CCOCC2)ccc2c3n(c(=NC(=O)c4cnc(N)nc4)nc12)CCN3`, the IC50 was 0.0141 µM and 0.0121 µM. The viability, T/C (compound 0.00316 µM) is 86% and 84.6%. Also, where the note is “compound 0.01 µM”, the viability, T/C was 55.7% and 52.6%. Besides, the viability, T/C (compound 0.0316 µM) is 35.4% and 31.9%. In addition, the viability, T/C (compound 0.1 µM) was 12.5% and 11%. The viability, T/C (compound 0.316 µM) was 4.09% and 3.82%. Besides, the viability, T/C (compound 1 µM) is 2.57% and 1.98%.

For `Cn1ncnc1[C@H]1c2n[nH]c(=O)c3cc(F)cc(c23)N[C@@H]1c1ccc(F)cc1`, the IC50 was more than 0.1 µM. The viability, T/C (compound 0.000316 µM) was 105% and 134%. The viability, T/C (compound 0.001 µM) was 97.5% and 96.9%. Further, the viability, T/C (compound 0.00316 µM) was 110% and 130%. The viability, T/C (compound 0.01 µM) is 113% and 102%. Moreover, where the note is “compound 0.0316 µM”, the viability, T/C is 121% and 158%. Moreover, the viability, T/C (compound 0.1 µM) was 110% and 141%.

As for `NC(=O)C(=Cn1cnc(-c2cc(C(F)(F)F)cc(C(F)(F)F)c2)n1)c1cncnc1`, the IC50 is 0.0717 µM and 0.0723 µM. For the same compound, the viability, T/C (compound 0.00949 µM) is 133% and 162%. In addition, the viability, T/C (compound 0.03 µM) is 110% and 130%. Further, under “compound 0.0949 µM”, the viability, T/C is 30.4% and 25.3%. Besides, the viability, T/C (compound 0.3 µM) was 11.7% and 9.71%. Moreover, the viability, T/C (compound 0.949 µM) was 10.5% and 7.35%. Moreover, where the note is “compound 3 µM”, the viability, T/C is 4.97% and 5%.

`Nc1ccccc1NC(=O)c1ccc(CNC(=O)OCc2cccnc2)cc1`: the IC50 is 1.36 µM and 1.14 µM. Besides, the viability, T/C (compound 0.0316 µM) was 81.5% and 97.5%. The viability, T/C (compound 0.1 µM) was 72.8% and 73.2%. The viability, T/C (compound 0.316 µM) is 75.6% and 75%. For the setting “compound 1 µM”, the viability, T/C was 60.6% and 54.4%. Further, the viability, T/C (compound 3.16 µM) was 21.2% and 28.1%. The viability, T/C (compound 10 µM) was 2.46% and 1.54%.

Source of the values: PubChem BioAssay AID2060609 (Molecular Pharmacology Branch, DTP, NCI, 2025).
